The source of these data is patent publication US11767303B2, “Compounds and methods for inhibiting viral replication and methods of treating and preventing flaviviral infections” (priority 2020, dated 2023).

In assay [1] the test system is ZIKV. The assay is described as follows: ZIKV inhibition in human neural progenitor cells (IFA, qRT-PCR). The format is cell-based, Zika virus. The settings on record: HNPC. An excerpt: Viral Titer Reduction Assay. A viral titer reduction assay was used to determine the compounds' effect on DENV2 and ZIKV strains, as described previously. Li et al., “Existing Drugs as Broad-Spectrum and Potent Inhibitors for Zika Virus by Targeting NS2B-NS3 Interaction,” Cell Res. 27:1046-1064 (2017) and Li et al., “Erythrosin B is a Potent and Broad-Spectrum Orthosteric Inhibitor of the Flavivirus NS2B-NS3 Protease,” Antiviral Res. 150:217-225 (2018), which are hereby incorporated by reference in their entirety. Human A549 lung carcinoma cells and human primary neural progenitor cells were used, as described previously. Li et al., “Erythrosin B is a Potent and Broad-Spectrum Orthosteric Inhibitor of the Flavivirus NS2B-NS3 Protease,” Antiviral Res. 150:217-225 (2018); Brecher et al., “A Conformational Switch High-Throughput Screening Assay and Allosteric Inhibition of the Flavivirus NS2B-NS3 Protease,” PLoS Pathog. 13:e1006411 (2017), which are hereby incorporated by reference in their entirety. All experiments were performed in triplicates.
Immunofluorescence Assay. The immunofluorescence assay was performed using ZIKV-infected cells treated with DMSO or JMX0207, as described previously. […]
Quantitative qRT-PCR. Quantitative qRT-PCR was performed as described previously. […] The 2-ΔΔCT (“delta-delta Ct”) method was used to quantify samples. […]
A general note: Quantitative PCR measures a nucleic acid by following its amplification.

The subject of assay [2] is ZIKV. The assay is described as follows: Immunofluorescence assay of viral protein production in A549 cells. The format is cell-based, Zika virus. The settings on record: IFA with anti-E 4G2. Here is the method: Immunofluorescence Assay. The immunofluorescence assay was performed using ZIKV-infected cells treated with DMSO or JMX0207, as described previously. Li et al., “Existing Drugs as Broad-Spectrum and Potent Inhibitors for Zika Virus by Targeting NS2B-NS3 Interaction,” Cell Res. 27:1046-1064 (2017); Li et al., “Erythrosin B is a Potent and Broad-Spectrum Orthosteric Inhibitor of the Flavivirus NS2B-NS3 Protease,” Antiviral Res. 150:217-225 (2018), which are hereby incorporated in their entirety. A mouse monoclonal pan anti-E antibody 4G2 (ATCC) and a DyLight® 488 goat anti-mouse IgG (ImmunoReagents, Inc.) were used to monitor viral E protein expression, as described previously. Li et al., “Existing Drugs as Broad-Spectrum and Potent Inhibitors for Zika Virus by Targeting NS2B-NS3 Interaction,” Cell Res. 27:1046-1064 (2017); Li et al., “Erythrosin B is a Potent and Broad-Spectrum Orthosteric Inhibitor of the Flavivirus NS2B-NS3 Protease,” Antiviral Res. 150:217-225 (2018), which are hereby incorporated in their entirety.

On to `O=C(Nc1ccc([N+](=O)[O-])cc1Cl)c1cccc([N+](=O)[O-])c1O` [JMX0207, N-(2-Chloro-4-nitrophenyl)-2-hydroxy-3-nitrobenzamide], for which the “ZIKV protein expression and RNA synthesis” value in the assay on ZIKV [1] is “effectively inhibited ZIKV protein expression and RNA synthesis in HNPC in dose-dependent manner”. Besides, the ZIKV antigen production entry in the assay with ZIKV [2] is “greatly reduced ZIKV antigen production in A549 cells in a dose-dependent manner”.
